For 39 molecules, IC50 results are on record in patent publication US10703764B2, “Benzopiperazine compositions as BET bromodomain inhibitors” (FORMA Therapeutics, Inc., priority 2013, dated 2020).

Where two headings read alike, the source gives them in different places. Where only a bound is given, the exact number is not on record here.

The target of experiment [1] is T1, BRD4 BD2 (Homo sapiens, UniProt O60885).
T1 construct: made in house
In words: AlphaScreen binding assay, BRD4 Bromodomain 2. An outline of the steps: (§1)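 Compound dilution series were mixed with His-tagged BRD4 bromodomain and biotinylated tetra-acetylated H4 (1-21) peptide at pH 7.3 (BD1 and peptide at 50 nM, BD2 and peptide at 100 nM). Donor and acceptor beads were then added, and plates were equilibrated at least 1 h before reading. IC50 values were fitted with a four-parameter logistic model.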
Background: Bead proximity is the source of the signal in Alpha formats.

The test system of experiment [2] is MV4-11 cells. Briefly: Oncology cell growth assay (3-day proliferation, CellTiter-Glo). It is filed as cell-based. As to conditions: Homo sapiens, AML cell line MV4-11, 72 hours, compounds grouped by IC50 range, read-out: MV4-11 IC50 (inhibition of proliferation, gIC50). In short, it runs like this:
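A 3-day proliferation test used MV4-11 cells seeded at 3000 per well with eight compound concentrations (10 μM top, 3-fold dilution) at 37° C in 5% CO2. CellTiter-Glo luminescence defined viable cell signal. A four-parameter logistic curve against DMSO and background wells gave the gIC50.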
Background: ATP-based viability assays read luminescence as a measure of living cells.

Experiment [3] deals with T2, BRD4 BD1 (Homo sapiens, UniProt O60885).
T2 construct: made in house
In words: AlphaScreen binding assay, BRD4 Bromodomain 1. An outline of the steps:
as §1

Consider `CCS(=O)(=O)Nc1ccc(-c2ccc3c(c2)N(C(=O)C2CC2)C[C@H](C)N3C(C)=O)cc1` [Example I-1135], for which the IC50 in experiment [1] is 50 to 500 nM; in experiment [2] (MV4-11, 72 h), 100 to 500 nM; in experiment [3], 100 to 1000 nM.
The corresponding values for `CCS(=O)(=O)Nc1ccc(-c2ccc3c(c2)N(C(=O)C2CCC2)C[C@H](C)N3C(C)=O)cc1` [Example I-1136] are 50 to 500 nM, 100 to 500 nM and 100 to 1000 nM.
`CCNS(=O)(=O)c1ccc(-c2ccc3c(c2)N(C(=O)OCC)C[C@H](C)N3C(C)=O)cc1` [Example I-1137]: the IC50 was in the range of 50 to 500 nM in experiment [1]; 100 to 500 nM in experiment [2] (MV4-11, 72 h); 100 to 1000 nM in experiment [3].
`CCS(=O)(=O)Nc1ccc(-c2ccc3c(c2)N(C(=O)OC(C)C)C[C@H](C)N3C(C)=O)cc1` [Example I-1138]: the IC50 in experiment [1] was in the range of 50 to 500 nM; in experiment [2] (MV4-11, 72 h), 100 to 500 nM; in experiment [3], 100 to 1000 nM.
The corresponding values for `COc1ccc(-c2ccc3c(c2)N(C(=O)C2CC2)C[C@H](C)N3C(C)=O)cc1NS(C)(=O)=O` [Example I-1139] are 50 to 500 nM, 100 to 500 nM and 1000 to 10000 nM.
In the same order, the values of `COc1ccc(-c2ccc3c(c2)N(C(=O)C2CCC2)C[C@H](C)N3C(C)=O)cc1NS(C)(=O)=O` [Example I-1140] are 50 to 500 nM, 100 to 500 nM and 1000 to 10000 nM.
In the same order, the values of `CCOC(=O)N1C[C@H](C)N(C(C)=O)c2ccc(-c3ccc(OC)c(NS(C)(=O)=O)c3)cc21` [Example I-1141] are 50 to 500 nM, 100 to 500 nM and 100 to 1000 nM.
As to `COc1ccc(-c2ccc3c(c2)N(C(=O)OC(C)C)C[C@H](C)N3C(C)=O)cc1NS(C)(=O)=O` [Example I-1142], the IC50 in experiment [1] fell in the range of 50 to 500 nM; in experiment [2] (MV4-11, 72 h) it was 100 to 500 nM; in experiment [3] it was 100 to 1000 nM.
As for `CC(=O)N1c2ccc(-c3cccc(NS(=O)(=O)N(C)C)c3)cc2N(C(=O)C2CC2)C[C@@H]1C` [Example I-1143], the IC50 is 50 to 500 nM in experiment [1]; 100 to 500 nM in experiment [2] (MV4-11, 72 h); 1000 to 10000 nM in experiment [3].
The corresponding values for `CC(=O)N1c2ccc(-c3cccc(NS(=O)(=O)N(C)C)c3)cc2N(C(=O)C2CCC2)C[C@@H]1C` [Example I-1144] are 50 to 500 nM, 100 to 500 nM and 1000 to 10000 nM.
`CCOC(=O)N1C[C@H](C)N(C(C)=O)c2ccc(-c3cccc(NS(=O)(=O)N(C)C)c3)cc21` [Example I-1145]: the IC50 in experiment [1] is 50 to 500 nM; in experiment [2] (MV4-11, 72 h), greater than 500 nM; in experiment [3], 1000 to 10000 nM.
In the same order, the values of `CC(=O)N1c2ccc(-c3cccc(NS(=O)(=O)N(C)C)c3)cc2N(C(=O)OC(C)C)C[C@@H]1C` [Example I-1146] are 50 to 500 nM, 100 to 500 nM and 100 to 1000 nM.
Regarding `CC(=O)N1c2ccc(-c3cnn(C4CCOCC4)c3)cc2N(C(=O)OC2CCCC2)C[C@@H]1C` [Example I-1147], the IC50 was less than 50 nM in experiment [1]; less than 100 nM in experiment [2] (MV4-11, 72 h); less than 100 nM in experiment [3].
Regarding `CC(=O)N1c2ccc(-c3cnn(C4CCCS(=O)(=O)C4)c3)cc2N(C(=O)OC2CCCC2)C[C@@H]1C` (stereo partly drawn) [Example I-1148], the IC50 in experiment [1] is less than 50 nM; in experiment [2] (MV4-11, 72 h) it was 100 to 500 nM; in experiment [3], 100 to 1000 nM.
On to `CC(=O)N1c2ccc(-c3cnn(C4CCNCC4)c3)cc2N(C(=O)Oc2ccc(F)cc2)C[C@@H]1C` [Example I-1149], for which the IC50 in experiment [1] is 50 to 500 nM; in experiment [2], less than 100 nM; in experiment [3], 100 to 1000 nM.
Take `CC(=O)N1c2ccc(-c3cnn(C4CNC4)c3)cc2N(C(=O)Oc2ccc(F)cc2)C[C@@H]1C` [Example I-1150]: the results for the IC50 in experiment [1], in experiment [2] and in experiment [3] were less than 50 nM, 100 to 500 nM and 100 to 1000 nM, respectively.
In the same order, the values of `COC(=O)N1c2ccc(-c3cnn(C4CCNCC4)c3)cc2N(C(=O)Oc2ccc(F)cc2)C[C@@H]1C` [Example I-1151] are 50 to 500 nM, 100 to 500 nM and 100 to 1000 nM.
For `CC(=O)N1c2ccc(-c3cccc(N4CCCS4(=O)=O)c3)cc2N(C(=O)C2CC2)C[C@@H]1C` [Example I-1152], the IC50 in experiment [1] is 50 to 500 nM; in experiment [2] (MV4-11, 72 h) it was 100 to 500 nM; in experiment [3] it was 1000 to 10000 nM.
Turning to `CC(=O)N1c2ccc(-c3cccc(N4CCCS4(=O)=O)c3)cc2N(C(=O)OC(C)C)C[C@@H]1C` [Example I-1153], the IC50 lay within 50 to 500 nM in experiment [1]; 100 to 500 nM in experiment [2] (MV4-11, 72 h); 100 to 1000 nM in experiment [3].
In the case of `CC(=O)N1c2ccc(-c3ccc(N4CCCS4(=O)=O)c(F)c3)cc2N(C(=O)C2CCC2)C[C@@H]1C` [Example I-1154], the IC50 is 50 to 500 nM in experiment [1]; greater than 500 nM in experiment [2] (MV4-11, 72 h); 1000 to 10000 nM in experiment [3].
In the same order, the values of `CCOC(=O)N1C[C@H](C)N(C(C)=O)c2ccc(-c3ccc(N4CCCS4(=O)=O)c(F)c3)cc21` [Example I-1155] are 50 to 500 nM, greater than 500 nM and 100 to 1000 nM.
The corresponding values for `CC(=O)N1c2ccc(-c3ccc(N4CCCS4(=O)=O)c(F)c3)cc2N(C(=O)OC(C)C)C[C@@H]1C` [Example I-1156] are 50 to 500 nM, 100 to 500 nM and 100 to 1000 nM.
The corresponding values for `CC(=O)N1c2ccc(-c3ccc4c(c3)CCCN4S(C)(=O)=O)cc2N(C(=O)C2CC2)C[C@@H]1C` [Example I-1157] are less than 50 nM, 100 to 500 nM and 100 to 1000 nM.
With `CC(=O)N1c2ccc(-c3ccc4c(c3)CCCN4S(C)(=O)=O)cc2N(C(=O)C2CCC2)C[C@@H]1C` [Example I-1158], the IC50 was 50 to 500 nM in experiment [1]; greater than 500 nM in experiment [2] (MV4-11, 72 h); 100 to 1000 nM in experiment [3].
In the same order, the values of `CCOC(=O)N1C[C@H](C)N(C(C)=O)c2ccc(-c3ccc4c(c3)CCCN4S(C)(=O)=O)cc21` [Example I-1159] are 50 to 500 nM, 100 to 500 nM and 100 to 1000 nM.
`CC(=O)N1c2ccc(-c3ccc4c(c3)CCCN4S(C)(=O)=O)cc2N(C(=O)OC(C)C)C[C@@H]1C` [Example I-1160]: the IC50 in experiment [1] fell in the range of 50 to 500 nM; in experiment [2] (MV4-11, 72 h) it was 100 to 500 nM; in experiment [3] it was 100 to 1000 nM.
Consider `CC(=O)N1c2ccc(-c3cccc(N4CCCS4(=O)=O)c3)cc2N(C(=O)C2CCC2)C[C@@H]1C` [Example I-1161], for which the IC50 is 50 to 500 nM in experiment [1]; greater than 500 nM in experiment [2] (MV4-11, 72 h); 1000 to 10000 nM in experiment [3].
In the same order, the values of `CCOC(=O)N1C[C@H](C)N(C(C)=O)c2ccc(-c3cccc(N4CCCS4(=O)=O)c3)cc21` [Example I-1162] are 50 to 500 nM, greater than 500 nM and 100 to 1000 nM.
In the case of `CCOC(=O)N1C[C@H](C)N(C(C)=O)c2ccc(-c3cc(N4CCCS4(=O)=O)cc(C(F)(F)F)c3)cc21` [Example I-1165], the IC50 in experiment [1] is 50 to 500 nM; in experiment [2] (MV4-11, 72 h), greater than 500 nM; in experiment [3], 1000 to 10000 nM.
On to `CC(=O)N1c2ccc(-c3cc(N4CCCS4(=O)=O)cc(C(F)(F)F)c3)cc2N(C(=O)OC(C)C)C[C@@H]1C` [Example I-1166], for which the IC50 was 50 to 500 nM in experiment [1]; greater than 500 nM in experiment [2] (MV4-11, 72 h); 100 to 1000 nM in experiment [3].
Take `COc1ccc(-c2ccc3c(c2)N(C(=O)C2CC2)C[C@H](C)N3C(C)=O)cc1N1CCCS1(=O)=O` [Example I-1167]: the IC50 in experiment [1] was 50 to 500 nM; in experiment [2] (MV4-11, 72 h), 100 to 500 nM; in experiment [3], 100 to 1000 nM.
The corresponding values for `COc1ccc(-c2ccc3c(c2)N(C(=O)C2CCC2)C[C@H](C)N3C(C)=O)cc1N1CCCS1(=O)=O` [Example I-1168] are 50 to 500 nM, 100 to 500 nM and 100 to 1000 nM.
Take `CCOC(=O)N1C[C@H](C)N(C(C)=O)c2ccc(-c3ccc(OC)c(N4CCCS4(=O)=O)c3)cc21` [Example I-1169]: the IC50 fell in the range of 50 to 500 nM in experiment [1]; 100 to 500 nM in experiment [2] (MV4-11, 72 h); 100 to 1000 nM in experiment [3].
As for `COc1ccc(-c2ccc3c(c2)N(C(=O)OC(C)C)C[C@H](C)N3C(C)=O)cc1N1CCCS1(=O)=O` [Example I-1170], the IC50 in experiment [1] lay in the range of 50 to 500 nM; in experiment [2] (MV4-11, 72 h) it was 100 to 500 nM; in experiment [3], 100 to 1000 nM.
Turning to `CC(=O)N1c2ccc(-c3ccc(NS(C)(=O)=O)c(C)c3)cc2N(C(=O)C2CC2)C[C@@H]1C` [Example I-1171], the IC50 in experiment [1] was in the range of 50 to 500 nM; in experiment [2] (MV4-11, 72 h) it was 100 to 500 nM; in experiment [3], 100 to 1000 nM.
The corresponding values for `CC(=O)N1c2ccc(-c3ccc(NS(C)(=O)=O)c(C)c3)cc2N(C(=O)C2CCC2)C[C@@H]1C` [Example I-1172] are 50 to 500 nM, 100 to 500 nM and 100 to 1000 nM.
Regarding `CCOC(=O)N1C[C@H](C)N(C(C)=O)c2ccc(-c3ccc(NS(C)(=O)=O)c(C)c3)cc21` [Example I-1173], the IC50 was 50 to 500 nM in experiment [1]; 100 to 500 nM in experiment [2] (MV4-11, 72 h); 100 to 1000 nM in experiment [3].
The corresponding values for `CC(=O)N1c2ccc(-c3ccc(NS(C)(=O)=O)c(C)c3)cc2N(C(=O)OC(C)C)C[C@@H]1C` [Example I-1174] are 50 to 500 nM, 100 to 500 nM and 100 to 1000 nM.
Turning to `CC(=O)N1c2ccc(-c3ccc4c(c3)N(C)S(=O)(=O)N4)cc2N(C(=O)C2CC2)C[C@@H]1C` [Example I-1175], the IC50 in experiment [1] is 50 to 500 nM; in experiment [2] (MV4-11, 72 h), greater than 500 nM; in experiment [3], 100 to 1000 nM.
